From patent US11725027B2, “Hypersensitive response elicitor-derived peptides and use thereof” (priority 2016, dated 2023) come the findings set out here.

Like-named read-outs stand apart in the source and are kept apart here. Marks after values point to notes of the source that are not given here. No end group written: not given here.

In data set [1] the test system is tobacco mosaic virus (TMV). Put plainly: Induction of resistance to tobacco mosaic virus in tobacco. In kind it is in vivo. The following applies: % decline in TMV lesions vs UTC, spray 20 ug/ml; for Effectiveness Covered (%): covered leaf (systemic response); for Effectiveness Uncovered (%): uncovered leaf (local response). Here is the method:
Peptides were tested for the induction of resistance to tobacco mosaic virus (TMV) in tobacco. Briefly, three tobacco plants at 6-8 weeks old were selected per group (samples and controls). The bottom-most leaf of the plant was covered and the plant was sprayed with a solution of water (untreated control—UTC), peptide, or Proact (positive control). The spray was applied until the leaves were fully wetted, indicated by liquid dripping from the leaves. The plants were then allowed to dry and the leaf covering was removed.
Three days post-treatment, the previously-covered leaf and a leaf on the opposite side of the plant were then lightly dusted with diatomaceous earth and 20 ul of a 1.7 ug/ml solution of purified tobacco mosaic virus was applied. The TMV solution was then spread across the leaf surface by lightly rubbing solution and the diatomaceous earth across the surface of the leaves. Two minutes after inoculation, the diatomaceous earth was rinsed off the leaves with water. 3 days after TMV inoculation, the leaves were scored based on the number of TMV lesions observed. The leaf was also scored for signs of the hypersensitive response, including yellowing and wilting of the affected leaves.
Effectiveness described in Table 6 refers to the % decline in TMV lesions on treated vs UTC plants. A reduction of TMV on covered leaves indicates a systemic immune response in the plant while reduction on uncovered leaves indicates a local response. Asterisks indicate that the P-value derived from a T-test was <0.05.

Data set [2] deals with Nicotiana tabacum cultivar xanthi plants. Put plainly: Hypersensitive Response (HR) induction in tobacco leaves. Details: key to HR: Plants are considered HR-positive (“HR+”) if they exhibit wide-spread macroscopic cell death visible to the naked eye, accompanied by wilting and browning of the affected tissue within 48 hours; Plants are considered HR-negative (“HR−”) if they exhibit no discernible wilting or tissue death observable by naked eye. The following applies: for HR: tobacco leaf infused with 500, 250, 125, 62.5, 31.25 μg/ml peptide solutions, scored over 48 hours; for elicitation of HR, effect of Met to Ala mutations: tobacco. In kind it is in vivo. From the text: A property of a peptide to elicit a hypersensitive response, or not, upon infiltration or application of the peptide to plant tissues can be measured by applying the peptide in dry powder form or in solution form to a plant, particularly though not exclusively a plant leaf.
The minimal eliciting sequence derived from was developed based on the sequence of the hrex gene from Xanthomonas campestris pv. pelargonii. A number of truncated and mutated sequences were synthesized and tested for Hypersensitive Response induction (results in Table 4). HR in tobacco was tested as described in Wei, Science 257:85-88 (1992), which is hereby incorporated by reference in its entirety. Briefly, peptides were dissolved at a concentration of 500 μg/ml in aqueous solution. Four serial dilutions were performed with an equal volume of water, yielding peptide samples at 500, 250, 125, 62.5, 31.25 μg/ml peptide solutions. Nicotiana tabacum cultivar xanthi plants were used at 5-7 weeks old (preflowering). Leaves were lightly punctured with a toothpick in a middle leaf panel. Peptide solutions were then infused via needle-less syringe into the wound, filling the panel. Each peptide sample was infused into a leaf of 2 different plants. The leaves were observed and scored over the next 48 hours for withering and browning, lesions typical of programmed cell death. These studies had […] main goals: (1) determine the minimal sequence sufficient for HR elicitation (2) increase the solution stability of the peptides; (3) make disruptive mutations to verify the residues which are most important for HR elicitation; (4) make conservative mutations to identify the degree of specificity for particular amino acids.

The next data set relates to soy. Briefly: Drought resistance in soy (greenhouse, spray). In kind it is in vivo. The following applies: soy under cyclic drought. Here is the method: The effectiveness of peptide treatment in reducing drought stress was assessed in soy. 3.5 inch pots were filled with Sunshine #1 soil (SunGro Horticulture), fertilized with a 20-10-20 mixture. The soil was soaked and drained overnight. Seeds (soy, manually inspected to ensure uniform seed size) were planted at a depth of half inch for germination. Plants were grown in a greenhouse under 16 hour light days at >70° F. and 8 hour dark nights at >65° F. Prior to drought conditions, the plants were well-watered.
When the plants reached the growth stage when first trifoliate expanded, plants were culled to achieve a uniform height (abnormally large and small plants were removed). Plants were then randomly assigned to control (spray without peptide) or treatment (spray with peptide) groups and heights were measured. Peptide was made up in a solution of 0.2 ug/ml or 2 ug/ml in distilled water+0.04% Tween-20, and applied as a fine mist from a spray bottle until the solution drips from the leaves. After the peptide solutions were dried, the plants were again randomized in a randomized complete block design. Cyclic drought stress was initiated after the peptide treatment. Plants were subjected to at least three drought cycles of drought stress (3-5 days of withholding water and 1 day irrigated with saturating amount of water) before harvesting.
The drought test phase ended after 2-3 weeks. At that time, the plant height was again measured and the growth rate was calculated as the difference between this and the previously-recorded height. The above-ground part portions of the plants were harvested and weighed to obtain fresh weight. The above-ground portion was also dried in an oven at 70° C. for 72 hours to obtain dry weight. All calculations were compared with matched untreated control plants.

For data set [3] the following is noted: 50° C.; for peptide remaining: after 14 days. Here is the method:
Briefly, the stability and resistance to chemical degradation of peptides can be assessed as follows using peptide samples having an initial purity of at least about 80%, at least about 82%, at least about 84%, at least about 86%, at least about 88%, at least about 90%, at least about 92%, at least about 94%, at least about 96%, or at least about 98%. For water stability, the peptide is dissolved directly in de-ionized water. For chemical degradation tests, the peptide is dissolved in an aqueous solution containing 50 mM pH buffer and 0.25% Proxel GXL. Exemplary pH buffers include, without limitation: (i) Citrate pH 5.6; (ii) MES pH 6.0; (iii) MOPS pH 6.5; (iv) imidazole pH 7.5; (v) Citrate pH 7.2; (vi) EDDS, pH 7.3; (vii) EDTA pH 8.0; (viii) sodium phosphate pH 8.0; or (ix) TES pH 8.0. Peptides are first dissolved in the aqueous solution at a concentration of 0.5 mg/ml. The samples are incubated at 50° C. to allow for accelerated degradation. An initial sample of the peptide is removed, diluted 10× with water, and analyzed by reverse-phase HPLC. Briefly, 20 μl of the sample is injected into the solvent flow of an HPLC instrument and analyzed on a C18 HPLC column (YMC ProPack C18, YMC, Japan, or C18 Stablebond, Agilent Technologies, USA) using either a triethylamine phosphate in water/acetonitrile gradient or a 0.1% TFA in water/0.1% TFA in acetonitrile gradient to separate different peptide species. Eluting peptides are monitored by UV absorbance at 218 nm and quantified based on the area under the peak. The area under the peak for the initial peptide sample is treated as the standard for relative quantification in subsequent runs. At regular intervals (e.g., 1, 3, 7, 10, and 14 days), each peptide sample is surveyed and analyzed by HPLC as described above.
Stability against chemical degradation was assessed in various pH buffers by creating 0.2% AI solutions of pure, chemically synthesized peptide in deionized water, 0.25% weight to volume of Proxel® GXL (biocide), and 50 millimolar (mM) of nine buffers (separately) as follows: Citrate, pH 5.6, MES pH 6.0, MOPS pH 6.5, Citrate pH 7.2, EDDS pH 7.3, imidazole pH 7.5, EDTA pH 8, Phosphate pH 8, and TES pH 8.

With SAGSEQQLELLLAFIAAALQQ [Peptide P5-4], in data set [1], the “Effectiveness Covered (%)” value was 98* % and the “Effectiveness Uncovered (%)” value is 97* %. Moreover, the HR entry in data set [2] is listed as “+”. As for SEEELELLLAFIAAALEEEE [Peptide P5-22], in data set [1], the “Effectiveness Covered (%)” value is given as 62% and the “Effectiveness Uncovered (%)” value came to 82%. For the same sequence, in data set [2], the HR result is given as “+”. As for SEEQLDLLLMFIMMMLQQEE [Peptide P5-47], in data set [1], the “Effectiveness Covered (%)” value is 78* % and the “Effectiveness Uncovered (%)” value is reported as 87* %. Moreover, the HR result in data set [2] was “+”. With SEEEQLDLLLMFIMMMLQEE [Peptide P5-33], in the data set on soy (2.0 ug/ml), the “Dry Weight Increase (%)” value is on record as 5.02** % and the “Fresh Weight Increase (%)” value turned out to be 4.10%. Besides, the HR result in data set [2] is on record as “+”. Take LDLLLAFIAAALEEEEEE [Peptide P5-9]: in data set [3] (50 mM buffers), the “stability in buffer solutions” value is “better stability compared with P5”. Further, the peptide remaining entry in data set [3] (citrate pH 7.2, 50 mM) is recorded as “above 80%”; in data set [3] (phosphate pH 8.0, 50 mM) it was “above 80%”. Consider SAGSEQQLDLLLAFIAAALQQ [Peptide P5-3], for which, in data set [1], the “Effectiveness Covered (%)” value is reported as 70* % and the “Effectiveness Uncovered (%)” value was 55%. In addition, in data set [2], the “elicitation of HR, effect of Met to Ala mutations” value is listed as “do not affect the elicitation of HR” and the HR result is “+”. NQGISEKQQLDLLLMFIMMMLQQ [Peptide P5-75]: in the data set on soy (0.2 ug/ml), the “Dry Weight Increase (%)” value is given as 3.73% and the “Fresh Weight Increase (%)” value is 8.78** %. Besides, in the data set with soy (2.0 ug/ml), the “Dry Weight Increase (%)” value was 4.37% and the “Fresh Weight Increase (%)” value was 8.55** %. For the same sequence, the HR entry in data set [2] is listed as “Strong+”. Turning to SEEEEELDLLLAFIAAAL [Peptide P5-7], in data set [1], the “Effectiveness Covered (%)” value is 91* % and the “Effectiveness Uncovered (%)” value stood at 71%. Also, in data set [2], the HR entry is reported as “-”. As for SAGSEQQLDLLLAFIAAAL [Peptide P5-6], in data set [1], the “Effectiveness Covered (%)” value is 36% and the “Effectiveness Uncovered (%)” value was 62%. Besides, the HR entry in data set [2] is “-”. With SEEEEELDLLLAFIAAALQQ [Peptide P5-8], in data set [1], the “Effectiveness Covered (%)” value is 99* % and the “Effectiveness Uncovered (%)” value is 99* %. Further, in data set [2], the HR entry was “Weak+”. In the case of SAGSEQQLDELLMFIMMMLQQ [Peptide P5-36], in data set [2], the HR result was “+”.

As to SAGSEQQLDLLLMFIMMMEQQ [Peptide P5-45], the HR entry in data set [2] was “-”.

Consider SAGSEQQLDELLAFIAAALQQ [Peptide P5-50], for which, in data set [2], the HR result is reported as “Weak+”. The same measure, in the same setting: with SAGSEQQLDLLLMFIMMELQQ [Peptide P5-44] the entry was “Weak+”; with SAGSEQQLDLLLAEIAAALQQ [Peptide P5-69], “-”.

In the case of SEEQEELLLAFIAAALQQEE [Peptide P5-56], in data set [2], the HR entry was “-”. The same measure, in the same setting: with SAGSEQQLDELLAFIAAALQQ [Peptide P5-72] the entry was “-”. SAGSEQQLDQLLLAFIAAALQQ [Peptide P5-55]: the HR result in data set [2] is “-”. As to SAGSEQQLDLLLAFIAAELQQ [Peptide P5-68], the HR entry in data set [2] is reported as “-”.

For SEEEEELDLLLAFIAAALQ [Peptide P5-15], in data set [2], the HR entry is reported as “-”.

For SAGSEQQLDLLLAFIEALQQ [Peptide P5-65], the HR entry in data set [2] was “-”. With SAGSEQQLDLLLAFIAEALQQ [Peptide P5-66], the HR result in data set [2] is “Weak+”. Still for that read-out and setting: to SEEELDLLLAFIAAALEE [Peptide P5-11] belongs “-”; to SAGSEQQLDLLLMFIMEMLQQ [Peptide P5-43], “Strong+”. As for SAGSEQQLDLLLEFIALQQ [Peptide P5-63], in data set [2], the HR result is given as “-”. As to SEEEEELDLLLAFIAAALS [Peptide P5-16], the HR result in data set [2] was “-”.

As for SEEEEELDLLLAFIAAALGG [Peptide P5-14], the HR entry in data set [2] was “Weak+”. Turning to SAGSEQQLDLLLMFIAAALQQ [Peptide P5-2], in data set [1], the “Effectiveness Covered (%)” value is 90* % and the “Effectiveness Uncovered (%)” value turned out to be 25%. Besides, in data set [2], the “elicitation of HR, effect of Met to Ala mutations” value is “do not affect the elicitation of HR” and the HR result is “+”. SAGSEQQLDELLAFIALQQ [Peptide P5-62]: the HR result in data set [2] is given as “-”.
